The source of these data is publication PMC8596843, “Platinum Cyclooctadiene Complexes with Activity against Gram‐positive Bacteria” (Chemmedchem, 2021).

The subject of data set [1] is human red blood cells. Nature of the data set: Haemolysis assay. The conditions noted are these: for Haemolysis HC10: concentration inducing 10 % haemolysis. Type of data set: cell-based. The protocol:
As part of the CO‐ADD screening, all compounds that show any activity against a microbial strain are evaluated for their cytotoxicity against human embryonic kidney cells (HEK‐293) and for haemolysis against human red blood cells. None of the compounds tested for cytotoxicity (Pt1‐9 and Pd1) caused any significant cell death up to concentrations of 100 μM. […] We have also observed higher IC50 values for the methylated complexes Pt3 and Pt4 against HeLa cells in previous work.[16]
(§1) The resultant mid-log phase cultures were diluted
(§2) Gram-negative and Gram-positive bacteria, respectively.
(§3) final concentration range of 0.8 – 100 µM.
(§4) inhibitors as positive control.
(§5) Tamoxifen (Sigma T5648) was used
(§6) as internal control on each plate.
in a Neubauer haemocytometer.
incubated for 1 h at 37 °C, without shaking.
HC10 and HC50 (concentration at which 10%
for top, bottom and slope using Prism 8. […]

The subject of data set [2] is Staphylococcus aureus VRS 1, VRSA (VanA). Nature of the data set: Antibacterial MIC assay, Gram-positive panel. The note with it: Table S1 panel; n=4. Type of data set: cell-based. From the text: (§7) Bis(dimethyl-η4)-((1Z,1'E,5Z,5'E)-(1,1'-bi(cyclooctadiene))diplatinum(II) (Pt14) Smiles: C1C=CCCC(=CC1)C1=CCCC=CCC1.C[Pt]C.C[Pt]C
(§8) InChIKey: PHIWIZAHOBWKFJ-HPCBIOCFSA-N
(§9) Link to selected data that was repeated to approve the identity of the compounds: https://dx.doi.org/10.14272/PHIWIZAHOBWKFJ-HPCBIOCFSA-N.1
(§10) ATCC strains were sourced from the American Type Culture Collection and NRS strains from NARSA (Network on Antimicrobial Resistance in Staphylococcus aureus) via BEI Resources (www.beiresources.org), with clinical MSSA and MRSA isolates from Prof Graeme Nimmo, Queensland […]
(§11) Health Central Pathology. […]
(§12) Antibacterial minimum inhibitory concentration (MIC) assay
(§13) Compound Assay Plate Preparation: Compounds were dissolved in DMSO at 10mM (CO-ADD screening) or 4 mM (follow up screening) and were plated in a 2-fold dose response from 20 to 0.156 µM or 200 to 0.006 µM respectively, with a maximum of 0.5% or 1% DMSO, final in the assay […]
(§14) plated in a 2-fold dose response from 200 to 0.006 µM, with a maximum of 1 % DMSO, final in the assay concentration. (in-house screening)
(§15) For all the bacterial assays, each strain was cultured in Cation-adjusted Mueller Hinton broth (CAMHB; Bacto Laboratories 212322) at 37 °C overnight. A sample of each culture was then diluted 40-fold in fresh CAMHB and incubated at 37 °C for 1.5–3 h. The resultant mid-log phase cultures were diluted with CAMHB (CFU mL−1 measured by OD600), then added to each well of the compound-containing plates (384-well non-binding surface (NBS) plates; Corning CLS3640), giving a cell density of 5 × 10^5 CFU mL−1 and a total volume of 50 μL. Plates were covered and incubated at 37 °C for 18 h without shaking. Inhibition of bacterial growth was determined measuring absorbance at 600 nm (OD600), using media only as negative control and bacteria without inhibitors as positive control. MIC values were determined as the lowest concentration at which the growth was inhibited at ≥80%. Colistin sulfate (Sigma C4461) and vancomycin HCl (Sigma 861987) were used as internal controls on each plate for Gram-negative and Gram-positive bacteria, respectively. […]

Data set [3] has as its system Staphylococcus aureus ATCC 25923, MSSA. As to the kind of experiment: Antibacterial MIC assay, Gram-positive panel. Type of data set: cell-based. The conditions noted are these: Table S1 panel; n=4.
From the text: as §7, §8, §9, §10, §11, §12, §13, §14, §15

Data set [4] deals with Staphylococcus epidermidis ATCC 14990, type strain. As to the kind of experiment: Antibacterial MIC assay, Gram-positive panel. The note with it: Table S1 panel; n=4. Format: cell-based. Here is the method:
(§16) Smiles: C1C=CCCC(=CC1)C1=CCCC=CCC1.C[Pt]C.C[Pt]C […]
as §10, §11, §12, §13, §14, §15

Data set [5] deals with Enterococcus faecium ATCC 35667, type strain. As to the kind of experiment: Antibacterial MIC assay, Gram-positive panel. The conditions noted are these: Table S1 panel; n=4. Type of data set: cell-based. Here is the method: as §16, §10, §11, §12, §13, §14, §15
The test system of data set [6] is Bacillus subtilis ATCC 6051, type strain. Nature of the data set: Antibacterial MIC assay, Gram-positive panel. The conditions noted are these: Table S1 panel; n=2. Type of data set: cell-based. Here is the method: as §16, §10, §11, §12, §13, §14, §15
In data set [7] the test system is Enterococcus faecium Clinical Isolate, VRE (VanA). Nature of the data set: Antibacterial MIC assay, Gram-positive panel. Type of data set: cell-based. The note with it: Table S1 panel; n=4. The protocol:
as §16, §10, §11, §12, §13, §14, §15

Data set [8] relates to Enterococcus faecium ATCC 51559, MDR, VRE (VanA). Nature of the data set: Antibacterial MIC assay, Gram-positive panel. Format: cell-based. The conditions noted are these: Table S1 panel; n=2. The protocol:
as §16, §10, §11, §12, §13, §14, §15

Data set [9] concerns Enterococcus faecalis Clinical Isolate, VRE (VanB). Nature of the data set: Antibacterial MIC assay, Gram-positive panel. Format: cell-based. The note with it: Table S1 panel; n=4. Here is the method: as §16, §10, §11, §12, §13, §14, §15
In data set [10] the test system is Enterococcus faecalis ATCC 29212, control strain. As to the kind of experiment: Antibacterial MIC assay, Gram-positive panel. Type of data set: cell-based. The conditions noted are these: Table S1 panel; n=4. The protocol: as §16, §10, §11, §12, §13, §14, §15
The subject of data set [11] is HEK-293 ATCC CRL-1573 human embryonic kidney cells. Format: cell-based. The protocol:
As part of the CO‐ADD screening, all compounds that show any activity against a microbial strain are evaluated for their cytotoxicity against human embryonic kidney cells (HEK‐293) and for haemolysis against human red blood cells. None of the compounds tested for cytotoxicity (Pt1‐9 and Pd1) caused any significant cell death up to concentrations of 100 μM. […] We have also observed higher IC50 values for the methylated complexes Pt3 and Pt4 against HeLa cells in previous work.[16] […]
as §4, §5, §6
in a Neubauer haemocytometer. […]

The test system of data set [12] is S. aureus NRS 17 GISA. Nature of the data set: MIC in the presence of human serum (serum reversal). Format: cell-based, Staphylococcus aureus. The note with it: 50% serum.
From the text: (§17) To obtain some initial insight into the apparent disparity between in vitro and in vivo results, we repeated the MIC experiments against four selected Gram‐positive strains in the presence of 10 % or 50 % human serum (Table S3). Pt1 and Pt2 maintained some antibacterial activity against B. subtilis in the presence of 10 % serum, but a complete loss of activity was observed against MRSA and GISA (50 % serum), and VRE (10 % serum). […] Systemic administration is therefore unlikely to be a suitable administration route for this class of compounds unless an alternative formulation that can prevent serum binding (e. g. by lipid or nanoparticle encapsulation) can be found. […] Further in vivo studies should therefore focus on more suitable disease models. […]
as §12
(§18) concentration. (in-house screening)
(§19) Bacto Laboratories 212322) at 37 °C overnight.
as §1, §2, §3
(§20) inhibitors as positive control. […]

The test system of data set [13] is S. aureus ATCC 43300 MRSA. Described as above. The note with it: 50% serum. Type of data set: cell-based, Staphylococcus aureus.
From the text: as §17, §12, §18, §19, §1, §2, §3, §20

Data set [14] relates to E. faecium ATCC 51559 MDR, VRE. Described as above. Format: cell-based, Enterococcus faecium. The conditions noted are these: 10% serum.
From the text: as §17, §12, §18, §19, §1, §2, §3, §20

For data set [15], the system named is E. coli lpxC (non‐efficient lipid A production mutant). Nature of the data set: MIC against E. coli membrane mutants. Format: cell-based, Escherichia coli. The conditions noted are these: Table S2. Here is the method: as §12, §18, §19, §1, §2, §3, §20
Data set [16] has as its system B. subtilis ATCC 6051 type strain. As to the kind of experiment: MIC in the presence of human serum (serum reversal). The note with it: 10% serum. Format: cell-based, Bacillus subtilis.
From the text: as §17, §12, §18, §19, §1, §2, §3, §20

`CC[C@H](C)[C@H](NC(=O)CN)C(=O)NCC(=O)N[C@@H](C)C(=O)N[C@H](C(=O)N[C@@H](CC(C)C)C(=O)N[C@@H](CCCCN)C(=O)N[C@H](C(=O)N[C@@H](CC(C)C)C(=O)N[C@H](C(=O)N[C@H](C(=O)NCC(=O)N[C@@H](CC(C)C)C(=O)N1CCC[C@H]1C(=O)N[C@@H](C)C(=O)N[C@@H](CC(C)C)C(=O)N[C@H](C(=O)N[C@@H](CO)C(=O)N[C@@H](Cc1c[nH]c2ccccc12)C(=O)N[C@H](C(=O)N[C@@H](CCCCN)C(=O)N[C@@H](CCCNC(=N)N)C(=O)N[C@@H](CCCCN)C(=O)N[C@@H](CCCNC(=N)N)C(=O)N[C@@H](CCC(N)=O)C(=O)N[C@@H](CCC(N)=O)C(N)=O)[C@@H](C)CC)[C@@H](C)CC)[C@@H](C)O)[C@@H](C)O)C(C)C)C(C)C` [Melittin, reference compound]: the “Haemolysis HC10” value in data set [1] came to 1.15 µM.

Regarding `C1=C\CC/C=C\CC/1.[Cl][Pd][Cl]` [Pd1], the “Haemolysis HC10” value in data set [1] worked out at 7.76 µM. Moreover, in data set [1] (concentration inducing 50 % haemolysis), the “Haemolysis HC50” value was 10.14 µM. In addition, the MIC in data set [2] was over 200 µM; in [3], 200 µM; in data set [4] it was 100 µM; in data set [5] it was over 200 µM; in [6], over 200 µM; in data set [7], over 200 µM. Moreover, the MIC in [8] is 200 µM; in data set [9] it was over 200 µM; in data set [10], over 200 µM. This molecule yielded a CC50 in data set [11] of over 100 µM. In addition, the MIC in the presence of human serum in data set [12], in [13], in data set [14] and in [16] was over 200 µM throughout. The MIC E. coli lpxC in data set [15] was over 200 µM.

For orientation: MIC means the lowest concentration found to suppress growth. A high value points to a need for much substance. Broadly, the CC50 is the concentration that lowers cell viability or growth by half. Low values mean harm at low concentration, high ones better tolerance by the cells.
